Experimental data published in article PMC12040169 (PLOS Biology, 2025).

experiment: in vitro; conditions: human, hela cells, % viability

Going from `O=c1scnn1Cc1nc(-c2ccsc2)no1` [CBK306438] to `CCC(=O)Nc1ccc(-c2csc(N3CCSCC3)n2)cc1` [CBK306469], the viability at 28.5 h, 10 µM rises from 83.4% to 87%.

First: Cc1c(CNc2nnc(C(C)(C)C)o2)cnn1C [CBK306439]
Second: Cc1c(C(C)NCC(C)(C)N(C)C)cnn1-c1ccc(C#N)cc1 (stereo not drawn) [CBK306447]
The viability at 28.5 h, 10 µM of the first is lower: 83.5% for the first, 87.7% for the second.

First: CC(C)c1noc(NCCc2cn3c(n2)CCCC3)n1 [CBK306444]
Second: CCCc1nnc(SC(C)C(=O)N2CCCc3ccccc32)[nH]1 (stereo not drawn) [CBK306480]
The viability at 28.5 h, 10 µM of the first is higher: 93.5% for the first, 90% for the second.

Going from `CNC(=O)CC1CCN(c2cc(C#N)ccc2C(F)(F)F)CC1` [CBK306450] to `Cc1ccc(C#N)cc1S(=O)(=O)NC(=O)CC1CCOc2ccccc21` (stereo not drawn) [CBK306476], the viability at 28.5 h, 10 µM falls from 112% to 85.5%.

Going from `CC1CN(c2cc(CNc3ncccc3Cl)ccn2)CCO1` (stereo not drawn) [CBK306456] to `CCC(NC(=O)Nc1cc(N2CCOCC2)ccc1Cl)c1nccs1` (stereo not drawn) [CBK306519], the viability at 28.5 h, 10 µM rises from 88.3% to 93.2%.

First: CCOC(=O)c1cnn(C2CCCN(c3ccc(C#N)nc3)C2)c1 (stereo not drawn) [CBK306458]
Second: CCCn1nccc1C(=O)NC1CCCN(Cc2cccc(OC)c2)C1 (stereo not drawn) [CBK306563]
The viability at 28.5 h, 10 µM of the first is higher: 113% for the first, 84.9% for the second.

Compared with `CCc1ccc2c(c1)C(CCNC(=O)c1sccc1C)C(=O)N2` (stereo not drawn) [CBK306459], `CCc1ncsc1C(=O)NC1CCCN(c2ccn(C)n2)C1=O` (stereo not drawn) [CBK306498] is higher in viability at 28.5 h, 10 µM: 88.5% for the first, 104% for the second.

First: O=C(NCCc1cccnc1)Nc1ccc(CN2CCCC2=O)cc1 [CBK306461]
Second: CN(c1ncccc1CNC(=O)c1cccnc1)C1CCCCC1 [CBK306555]
The viability at 28.5 h, 10 µM of the first is lower: 80% for the first, 103% for the second.

Compared with `Cc1c(C(C)NCC(O)c2ccco2)cnn1-c1ccc(C#N)cc1` (stereo not drawn) [CBK306462], `Cc1c(C(=O)N2CCNC(=O)C2C(C)C)cnn1-c1ccc(Br)cc1` (stereo not drawn) [CBK306472] is higher in viability at 28.5 h, 10 µM: 88.4% for the first, 91.5% for the second.

First: O=C(Cn1cnnn1)NCc1cccnc1OCC(F)(F)F [CBK306467]
Second: CCC(NC(=O)CCOC)c1cn2cccnc2n1 (stereo not drawn) [CBK306560]
The viability at 28.5 h, 10 µM of the first is higher: 96.1% for the first, 88.2% for the second.

First: CC1CCN(S(=O)(=O)c2ccc(S(=O)(=O)Nc3ncnn3C)cc2)CC1 [CBK306470]
Second: CC1(C)CCCCC1CC(=O)NS(=O)(=O)c1cccc(-c2nnco2)c1 (stereo not drawn) [CBK306477]
The viability at 28.5 h, 10 µM of the first is higher: 92.3% for the first, 79.3% for the second.

First: CC(CN(C)C(=O)c1nc(=O)[nH][nH]1)Oc1ccc(Cl)c(Cl)c1 (stereo not drawn) [CBK306471]
Second: CCOC(=O)c1csc(C2CCCN2C(=O)c2cc(SC)ccc2Cl)n1 (stereo not drawn) [CBK306491]
The viability at 28.5 h, 10 µM of the first is lower: 87.9% for the first, 88% for the second.

First: CCc1nn2c(=O)cc(CN3CCN(C(=O)c4cccs4)CC3)nc2s1 [CBK306474]
Second: COC(=O)N1CCN(C(=O)c2cc(C(C)C)n3ncnc3n2)CC1 [CBK306509]
The viability at 28.5 h, 10 µM of the first is higher: 108% for the first, 85.4% for the second.

First: COCCn1c(SC(C)C(=O)OC)nc2ccc(Br)cc2c1=O (stereo not drawn) [CBK306479]
Second: COCCn1c(CO)nnc1[C@H]1C[C@@H](NC(=O)c2cc(C)ccc2Cl)C1 [CBK306564]
The viability at 28.5 h, 10 µM of the first is higher: 88.5% for the first, 81.2% for the second.

Going from `CN(CC(=O)O)C(=O)c1ccc(Oc2cccc(Br)c2)nc1` [CBK306485] to `Cc1ccc(C(=O)NCc2cccnc2N(C)C2CCCCC2)cn1` [CBK306514], the viability at 28.5 h, 10 µM rises from 90.7% to 116%.

Compared with `CCc1c[nH]c(SCC(=O)c2cc(C)n(C3CCS(=O)(=O)C3)c2C)n1` (stereo not drawn) [CBK306486], `CCCCC1C(=O)N(C)CCN1C(=O)c1cc(C)c(CC)n(C)c1=O` (stereo not drawn) [CBK306527] is higher in viability at 28.5 h, 10 µM: 83.5% for the first, 91.2% for the second.

Going from `CCC(C)CC(=O)NS(=O)(=O)c1cc(C#N)ccc1C` (stereo not drawn) [CBK306487] to `COCCNS(=O)(=O)c1cccc2c1CN(C(=O)c1ccccc1)CC2` [CBK306539], the viability at 28.5 h, 10 µM rises from 88.1% to 106%.

First: COCCn1c(SCc2cn3c(C)cc(C)nc3n2)nc(C)c1C [CBK306489]
Second: Cc1nn(C)c(C)c1CCc1nc(CN2CCN(C)CC2)no1 [CBK306510]
The viability at 28.5 h, 10 µM of the first is lower: 89.3% for the first, 110% for the second.

Going from `COc1ccccc1CC(=O)NC(CCSC)c1nnc2ccccn12` (stereo not drawn) [CBK306492] to `Cc1nn(CC(=O)N(C)CCn2ccnc2C)c(=O)c2ccccc12` [CBK306536], the viability at 28.5 h, 10 µM falls from 92.1% to 91.8%.

Going from `CS(=O)(=O)c1ccc2ncnc(NCC(CO)Cc3ccccn3)c2c1` (stereo not drawn) [CBK306493] to `COCCN(Cc1cnn(C)c1)C(=O)Cc1ccccn1` [CBK306576], the viability at 28.5 h, 10 µM rises from 88.7% to 112%.

Going from `CNC(=O)C1CCCN1C(=O)c1nnn(Cc2ccc(F)cc2F)c1C` (stereo not drawn) [CBK306496] to `Cc1c(C(=O)N2CCn3nc(CO)cc3C2)n(C)c2ccc(F)cc12` [CBK306552], the viability at 28.5 h, 10 µM rises from 93.2% to 97.7%.

Going from `Cc1c(C(=O)N(C)C2CCNCC2)nnn1-c1ccc2ncccc2c1` [CBK306500C] to `CCN(C(=O)Nc1cccnc1Oc1ccc(F)cc1)C1CCOCC1` [CBK306535], the viability at 28.5 h, 10 µM rises from 84.8% to 89.5%.

First: NCC(NC(=O)c1cnc(-c2ccncc2)s1)C1CCCCC1 (stereo not drawn) [CBK306502C]
Second: OC(c1cccs1)C1CCN(Cc2ccc(-n3cncn3)cc2)CC1 (stereo not drawn) [CBK306523]
The viability at 28.5 h, 10 µM of the first is higher: 104% for the first, 97.8% for the second.

Going from `COCCN(Cc1nccs1)C(=O)C1CCc2nn(C)c(=O)n2C1` (stereo not drawn) [CBK306506] to `CCn1cc(CN(C)Cc2nccs2)c2cc(C(=O)O)ncc21` [CBK306512], the viability at 28.5 h, 10 µM falls from 103% to 85.3%.

First: Cn1ncc(N2CCN(C(=O)CCN3CCCCCC3=O)CC2)cc1=O [CBK306508]
Second: Cc1cn2cccc(C(=O)N3CCCCC3CCN3CCOCC3)c2n1 (stereo not drawn) [CBK306518]
The viability at 28.5 h, 10 µM of the first is higher: 109% for the first, 90.3% for the second.

Compared with `Cc1cnc2c(Cl)c(C(=O)N3CCN(C)C4(CCNCC4)C3)nn2c1` [CBK306513], `COc1ccc2c(c1)c(C(=O)N1CCC3(CCNCC3)CC1)c(C)n2C` [CBK306562] is lower in viability at 28.5 h, 10 µM: 92.9% for the first, 72.9% for the second.

Going from `COc1cc2c(cc1-c1cn(CCN3CCCOC3=O)nn1)CCC2` [CBK306515] to `CCn1ncnc1CN(C)Cc1ccc2c(c1)CN(C)C2` [CBK306530], the viability at 28.5 h, 10 µM falls from 107% to 86.1%.

First: O=c1c2sc(-c3ccc(F)cc3)cc2ncn1CC1(O)CCCNC1 (stereo not drawn) [CBK306525]
Second: CCn1nc(C)cc1C(=O)N1Cc2cnn(Cc3ccc(F)cc3)c2C1 [CBK306574]
The viability at 28.5 h, 10 µM of the first is lower: 88.4% for the first, 96.7% for the second.

Compared with `CN(C(=O)NC1CCN(Cc2cccc(O)c2)CC1)C1CCS(=O)(=O)C1` (stereo not drawn) [CBK306538], `Cc1ccc(F)c(OC2(C(=O)O)CCN(Cc3cccc(C)n3)CC2)c1` [CBK306541] is higher in viability at 28.5 h, 10 µM: 83.5% for the first, 98.8% for the second.

Compared with `CC(C)Cn1cncc1CNC(=O)Nc1ccc2[nH]nnc2c1` [CBK306549], `CCn1nc(CC(C)C)cc1C(=O)NCCc1cn2cccnc2n1` [CBK306553] is higher in viability at 28.5 h, 10 µM: 91.9% for the first, 98.9% for the second.

Going from `Nc1nc(NCCOc2ccccc2F)cc(C2CCOC2)n1` (stereo not drawn) [CBK306559] to `O=C(N[C@@H]1CCOC[C@H]1Oc1ccc(CO)cc1)c1ccc(F)cc1` [CBK306571], the viability at 28.5 h, 10 µM rises from 78.2% to 112%.

Compared with `N#Cc1cccnc1N1CCC(NC(=O)c2ccc3nccn3c2)CC1` [CBK306566], `OC[C@H]1CCN(Cc2cc(Cl)ccc2OCCCn2ccnc2)C[C@H]1O` [CBK306581] is lower in viability at 28.5 h, 10 µM: 95.1% for the first, 88.4% for the second.

First: COc1cccc2ncn(C(C)c3nc(C)sc3C)c(=O)c12 (stereo not drawn) [CBK306570]
Second: Cc1nc(N)nc(NCC2CCN(C3CC3)C2)c1Cl (stereo not drawn) [CBK306575]
The viability at 28.5 h, 10 µM of the first is higher: 109% for the first, 85.9% for the second.
